Measured values taken from US5900406A, “Use of antibiotics of the type 2-deoxystreptamine substituted with aminosugars to inhibit growth of microorganisms containing group I introns” (NZYM, Inc., priority 1991, dated 1999).
Like-named read-outs stand apart in the source and are kept apart here.

How the values were obtained:
[1] = system: td intron (group I intron of the thymidylate synthase gene of phage T4, truncated version); type: biochemical; details: for IC50: read-out: concentration giving approximately 50% inhibition of the second splice step of the td intron; for inhibition of group I splicing: at millimolar concentrations; for ability to inhibit the group I intron splice reaction: antibiotics known to interact with 23S rRNA
Procedure: In vitro-transcribed and gel-purified^8 preRNA from a truncated version of the td intron^21 was incubated in a splicing buffer (50 mM Tris-HCl, pH 7.5, 5 mM MgCl2, 0.4 mM spermidine) for 10 min at 37° C. with GTP and gentamicin as indicated. Samples were separated on 5% acrylamide/7 M urea gels. RNA species are as follows: In-E2, intron-exon 2; L-ln, linear intron; E1-E2, ligated exons; E1, exon 1.
FIGS. 3a-c, Splicing experiments were done with the td intron as described in FIG. 2a, using several members of each family of aminoglycoside antibiotics (gentamicin, kanamycin and neomycin). Structures of the antibiotics can be found in Davies and Yagisaura in Biochemistry and Genetic Function Of Commercially Important Antibiotics, p. 329-354, Addison-Wesley, London, (1983) "Conc" is the antibiotic concentration at which about 50% inhibition was observed.
To monitor the splice process in vitro precursor RNA containing exon1, intron and exon2 was synthesized by in vitro transcription using bacteriophage RNA polymerase. During transcription, a radioactive labeled nucleotide was present in the nucleotide mixture and was incorporated in the RNA. This radioactive labeled RNA was then subjected to splicing conditions and after reaction the RNA splice products were separated from each other by electrophoresis on a denaturing acrylamide gel. The gel was dried and exposed for autoradiography.
Unspliced precursor RNA from the thymidylate synthase gene of the phage T4, which had been transcribed in vitro, and purified as previously described, (Schroeder, R., von Ahsen, U. & Belfort, M. Biochemistry 30, 3295-3303 (1991)) was incubated with increasing amounts of gentamicin under normal splicing conditions.
(§1) Materials and Methods: In vitro splicing experiments were performed with a truncated version of the td gene, containing 79 nt of exon I, 265 nt of intron sequences containing only the catalytic core (delta P6-2) and 21 nt of exon H (Schroeder, von Ahsen, & Belfort, 199 1, Biochemistry 30, 3295). The plasmids containing the Tetrahymena rRNA intron and the yeast mitochondrial cob intron I (the group II intron) were pBGST7 (Been & Cech, 1986, Cell 47, 207) and pBSbIl (Schmelzer and Schweyen, 1986, Cell 46, 557), respectively. The sunY intron is described in Michel et al. (1990, Genes & Development 4, 777). DNA was prepared by the alkaline-lysis procedure and linearized with appropriate restriction enzymes. Transcription was performed in a total volume of 20 μl at 30° C. for one (1) hour in buffer containing 40 mM Tris-HCl pH 7.5, 3 mM MgCl2, 0.4 mM spermidine, 1 mM of each NTP, 5 mM […], 10 units T7 RNA polymerase (Boehringer Mannheim), 10 μCi alpha-^35 S-CTP and 10 units RNAse inhibitor (Boehringer Mannheim). The reaction mixture was loaded on a 5% polyacrylamide/7 M urea gel. Precursor RNA was cut out of the gel and soaked in 400 μl elution buffer (10 mM Tris-HCl pH 7.5, 10 mM EDTA, 3.5 M NH4 OAc, 0.1% SDS) for two hours. After ethanol precipitation, the RNA was dissolved in H2 O-- before splicing experiments were performed the RNA was incubated in splicing buffer (40 mM Tris-HCl pH 7.5, 8 mM MgCl2, 0.4 mM spermidine) for 2 min at 56° C. For splicing of the suny intron and the Tetrahymena intron 50 mM NH4 Cl or 200 mM NaCl were added, respectively. Splicing was initiated by addition of guanosine at the appropriate concentration at 37° C. When splicing was to be inhibited by antibiotic, the antibiotic was added immediately before the guanosine. Splicing reactions were performed at 37° C. for 10'.

[2] = system: sunY intron (shortened version, construct SYC1.3); experiment: In vitro splicing inhibition of the sunY group I intron (GTP incorporation assay); type: biochemical, T4-phage
Procedure: as §1, with “DNA” for “Materials and Methods: In vitro splicing experiments were performed with a truncated version of the td gene, containing 79 nt of exon I, 265 nt of intron sequences containing only the catalytic core (delta P6-2) and 21 nt of exon H (Schroeder, von Ahsen, & Belfort, 199 1, Biochemistry 30, 3295). The plasmids containing the Tetrahymena rRNA intron and the yeast mitochondrial cob intron I (the group II intron) were pBGST7 (Been & Cech, 1986, Cell 47, 207) and pBSbIl (Schmelzer and Schweyen, 1986, Cell 46, 557), respectively. The sunY intron is described in Michel et al. (1990, Genes & Development 4, 777). DNA”, “10'. […] Samples were separated on 5% acrylamide/7 M urea gels.” for “10'.”

[3] = in vitro splicing, 37° C., 10 min

Row | Compound | IC50 [1, 3] | also measured
1 | NC[C@H]1O[C@H](O[C@H]2[C@H](O)[C@@H](O)[C@H](N)C[C@@H]2N)[C@H](N)[C@@H](O)[C@@H]1O [Neamine] | ~200 µM | 
2 | 2"-phospho-Gentamicin C | ~100 µM | 
3 | CNC1C(O)C(OC2C(N)CC(N)C(OC3OC(CN)CCC3N)C2O)OCC1(C)O (centres unmarked) [Dihydrosisomicin] | ~100 µM | 
4 | NC[C@@H]1O[C@H](O[C@H]2[C@@H](O)[C@H](O[C@@H]3[C@@H](O)[C@H](N)C[C@H](N)[C@H]3O[C@H]3O[C@H](CN)[C@@H](O)[C@H](O)[C@H]3N)O[C@@H]2CO)[C@H](N)[C@@H](O)[C@@H]1O [Neomycin B] | ~0.5 µM | concentration to which the sunY intron is sensitive [2]: 10 AM; lowest concentration with splicing inhibition activity ([1]; activity at a concentration as low as): 0.5 µM; antibiotic concentration affecting the first step of splicing ([1]; first step affected only at this concentration): 100 µM
5 | C[C@H]1O[C@H](O[C@H]2[C@H](O)[C@@H](O)[C@@H](O)[C@H](O)[C@@H]2O)[C@@H](N)C[C@@H]1NC(=N)C(=O)O [kasugamycin] |  | inhibition of group I splicing [1]: inactive
6 | CN[C@@H]1[C@@H](O[C@H]2O[C@H](CO)[C@@H](N)[C@H](O)[C@H]2O)OC2C[C@@H](N)[C@@H](O[C@H]3[C@H](O)[C@@H](O)[C@H](N)C[C@@H]3N)OC2[C@@H]1O (some centres unmarked) [Apramycin] | ~200 µM | 
7 | O=C(N[C@H](CO)[C@H](O)c1ccc([N+](=O)[O-])cc1)C(Cl)Cl [chloramphenicol] |  | ability to inhibit the group I intron splice reaction [1]: not able to inhibit; inhibition of group I splicing [1]: inactive
8 | CN[C@@H]1[C@H](O)[C@H](NC)[C@H]2O[C@@]3(O)C(=O)C[C@@H](C)O[C@H]3O[C@@H]2[C@H]1O [spectinomycin] |  | inhibition of group I splicing [1]: inactive
9 | CN[C@H]1C[C@@H](N)[C@H](O)[C@@H](O[C@@H]2O[C@H](CO)[C@H](O)[C@@H]3OC4(O[C@H]23)O[C@H]([C@@H](N)CO)[C@H](O)[C@H](O)[C@H]4O)[C@@H]1O (some centres unmarked) [hygromycin B] |  | inhibition of group I splicing [1]: inactive
10 | CN[C@@H]1[C@@H](O)[C@@H](O[C@@H]2[C@@H](O)[C@H](O[C@H]3O[C@H](CN)[C@@H](O)[C@H](O)[C@H]3O)[C@@H](N)C[C@H]2N)OC[C@]1(C)O [Gentamicin B] | ~10 µM | 
11 | C=C[C@]1(C)C[C@@H](OC(=O)CSCCN(CC)CC)[C@]2(C)[C@H](C)CC[C@]3(CCC(=O)[C@H]32)[C@@H](C)[C@@H]1O [tiamulin] |  | ability to inhibit the group I intron splice reaction [1]: not able to inhibit
12 | CN[C@@H]1[C@@H](O)[C@@H](O[C@@H]2[C@@H](O)[C@H](O[C@H]3OC(CN)=CC[C@H]3N)[C@@H](N)C[C@H]2N)OC[C@]1(C)O [Sisomicin] | ~50 µM | 
13 | noursethricin |  | ability to inhibit the group I intron splice reaction [1]: not able to inhibit
14 | Gentamicin C |  | IC50 [1]: ~1 µM
15 | CC[C@H]1OC(=O)[C@H](C)[C@@H](O[C@H]2C[C@@](C)(OC)[C@@H](O)[C@H](C)O2)[C@H](C)[C@@H](O[C@@H]2O[C@H](C)C[C@H](N(C)C)[C@H]2O)[C@](C)(O)C[C@@H](C)C(=O)[C@H](C)[C@@H](O)[C@]1(C)O [erythromycin] |  | ability to inhibit the group I intron splice reaction [1]: not able to inhibit; inhibition of group I splicing [1]: inactive
16 | NC[C@@H]1O[C@H](O[C@H]2[C@@H](O)[C@H](O[C@@H]3[C@@H](O)[C@H](N)C[C@H](N)[C@H]3O[C@H]3O[C@H](CO)[C@@H](O)C[C@H]3N)O[C@@H]2CO)[C@H](N)[C@@H](O)[C@@H]1O[C@H]1O[C@H](CO)[C@@H](O)[C@H](O)[C@@H]1O [Lividomycin] | ~500 µM | 
17 | CN[C@@H]1[C@@H](O)[C@@H](O[C@@H]2[C@@H](O)[C@H](O[C@H]3OC(CN)=CC[C@H]3N)[C@@H](N)C[C@H]2NC(C)=O)OC[C@]1(C)O [1-N-acetyl-Sisomicin] | ~100 µM | 
18 | NC[C@H]1O[C@H](O[C@H]2[C@H](O)[C@@H](O[C@H]3O[C@H](CO)[C@@H](O)[C@H](N)[C@H]3O)[C@H](N)C[C@@H]2N)[C@H](N)[C@@H](O)[C@@H]1O [Kanamycin B] | ~10 µM | 
19 | CN[C@@H]1[C@@H](O)[C@@H](O[C@@H]2[C@H](O)[C@H](O[C@H]3OC(CN)=CC[C@H]3N)[C@@H](N)C[C@H]2N)OC[C@]1(C)O [5-epi-Sisomicin] | ~0.5 µM | 
20 | NC[C@@H]1O[C@H](O[C@H]2[C@@H](O)[C@H](O[C@@H]3[C@@H](O)[C@H](N)C[C@H](N)[C@H]3O[C@H]3O[C@H](CO)[C@@H](O)[C@H](O)[C@H]3N)O[C@@H]2CO)[C@H](N)[C@@H](O)[C@@H]1O [Paromomycin] | ~100 µM | 
21 | CN[C@@H]1[C@@H](O)[C@@H](O[C@@H]2[C@@H](O)[C@H](O)[C@@H](N)C[C@H]2N)OC[C@]1(C)O [Garamine] | ~200 µM | 
